From patent US10538515B2, “Isatin-derived compounds, use of the compounds for the treatment of AIDS and method of treatment using these compounds” (FUNDAÇÄO OSWALDO CRUZ, priority 2016, dated 2020)
Like-named read-outs stand apart in the source and are kept apart here.

Experiments:
[1] = Cytotoxicity assay (MTT); format: cell-based; conditions: human
Method: (§1) The T-lymphocyte cell line (Suptl) was cultured in an RPMI 1640 medium (GIBICO). The cultures were supplemented with 10% Fetal Bovine Serum (SFB; HyClone, Logan, Utah, USA), 100 U/mL of penicillin and […] of streptomycin, and incubated at 37° C., in an atmosphere of 5% CO2. Virus stocks were prepared using the methodology described by Souza and Denizot (SOUZA, T. M. L; RODRIGUES, D. Q.; […], V. F.; MARQUES, I. P.; DE SOUZA, M. C. B. V.; […], I. C. P. P.; BOU-HABIB, D. C; FONTES, C. F. L. Characterization of HIV-1 enzyme reverse transcriptase inhibition by the compound 6-chloro-1.4-dihydro-4-oxo-1-(β-D-ribofuranosyl) quinoline-3-carboxylic acid through kinetic and in silico studies. Current HIV Research, v. 7, No 3, page 327-335, 2009. DENIZOT, F.; LANG, R. Rapid colorimetric assay for cell growth and survival. Modifications to the tetrazolium dye procedure giving improved sensitivity and reliability. The Journal of Immunological Methods, v. 89, No 2, page 271-277, 1986).
(§2) . They were then run through an MTT assay (3-(4,5-dimethylazol-2-yl)-2.5-diphenyl tetrazolium bromide) in order to analyze cell induction infeasibility. MTT is a colorimetric method that measures mitochondrial dehydrogenase activity based on the ability of live cells to reduce 3-(4,5-methylazol-2-yl)-2.5-diphenyl tetrazolium bromide salt in the product. A […] solution of 3-(4,5-dimethylthiazol-2-yl)-2.5-diphenyl tetrazolium bromide (1 mg/ml) (MTT, Sigma) was thus added to the cells, kept in Dulbecco's Modified Eagle's medium (DMEM) without serum. The MTT was removed after three hours and, after adding […] of isopropanol acid (0.04N HCl in isopropanol), the optical density (OD) was determined using a wavelength range of 570 to 690 nm, according to KUO et al (KUO, Y. C; CHEN, C. C; TSA, W. J.; HO, Y. H. Regulation of type 1 herpes simplex virus replication in vero cells by Psychotriaserpens: relationship to gene expression, DNA replication, and protein synthesis. Antiviral Research, v. 51, No 2, pages 95 to 109, 2001). The dye coloring has different optical densities, depending on mitochondrial metabolism after treating cells with different concentrations of the new derivatives or the absence thereof. The 50% cytotoxic concentration (CC50) was calculated through linear regression analysis from the dose-response curve obtained from experimental data.

[2] = biological target: T1, recombinant HIV-1 reverse transcriptase (RTHXB2) (Human immunodeficiency virus type 1 group M subtype B, UniProt P04585); experiment: Reverse transcriptase inhibition activity (RDDP, [3H]dTTP incorporation); format: biochemical; conditions: for IS: CC50 / CI50
T1 construct: The enzyme is derived from a polyprotein encoded by the virus, processed by the viral protease
Method: Reverse Transcriptase Inhibition Activity
The RDDP activity was determined in 50 mM Tris HCl (pH 7.8), 6 mM MgCl2, 1 mM dithiothreitol, 50 mM KCl, 5 μM dTTP, […] poly (rA) oligo (dT) template primer (Pharmacia, Piscataway, N.J., USA) and 3 U of enzyme (one unit is the enzyme concentration incorporating dTTP […] per minute per mg of enzyme at 37° C. under standard conditions). The reaction isotope dilutions were prepared at 2 μCi of [3H] dTTP (49 Ci/mmol)/2,7μ dTTP. The reaction was initiated at 37° C., incubated for 30 minutes and halted with 0.5M EDTA. The precipitate was collected on Whatman 81 filter paper and washed with 0.1 M sodium phosphate. The incorporated nucleotides were measured by liquid scintillation. The 50% inhibitory concentration (Ciso) was determined by linear regression analysis of the dose-response curve obtained from experimental data. The polymerization reaction was conducted in the presence and absence of test substances, as well as the presence and absence of standards.
All tests were conducted on three separate occasions. At least three independent experiments were performed and triplicates were run for each concentration.

[3] = tested on: Suptl cells (T-lymphocyte cell line); experiment: Cytotoxicity assay (MTT); format: cell-based
Method: as §1, §2

[4] = Suptl cells (T-lymphocyte cell line), 50% cytotoxic concentration, 72 hours, MTT, read-out: CC50
[5] = 50% cytotoxic concentration, 72 hours, MTT, read-out: CC50
[6] = 50% inhibitory concentration, mean of three independent experiments, read-out: CI50 (the source's name)

Structure (SMILES)	CC50 at 72 h [1, 4]	IC50 [2]	IS [2]	IC50 [2, 6]	other results
Cc1ccc2c(c1)C(=O)C(=O)N2Cc1cn(C2CC(n3cc(C)c(=O)[nH]c3=O)OC2CO)nn1 (stereo not shown) [Ib]	> 100 µM	1.9 µM	–	–	–
Cc1cn(C2CC(n3cc(CN4C(=O)C(O)(C#CC5CC5)c5ccccc54)nn3)C(CO)O2)c(=O)[nH]c1=O (stereo not shown) [IIa]	> 100 µM	2.1 µM	–	–	–
CCOP(=O)(Cn1cc(CN2C(=O)C(=O)c3ccccc32)nn1)OCC [If, diethyl ((4-((2.3-dioxoindolin-1-yl)methyl)-1H-1,2,3-triazole-1-yl)methyl) phosphonate]	–	1.3 µM	1,782	–	CC50 at 72 h [1, 5]: 2320 µM
CCOP(=O)(Cn1cc(CN2C(=O)C(O)(C#CC3CC3)c3cc(Cl)ccc32)nn1)OCC (stereo not shown) [IIf, diethyl ((4-((5-chloro-3-(cyclopropylethanol)-3-hydroxy-2-oxoindolin-1-yl)methyl)-1H-1,2,3-triazole-1-yl)methyl) phosphonate]	–	–	–	3.2 µM	CC50 [3, 5]: > 100 µM
C[C@H](Cn1cnc2c(N)ncnc21)OCP(=O)(O)O [Tenofovir, reference compound]	–	–	567	1.2 µM	CC50 [3]: 680 µM
Cc1ccnc2c1NC(=O)c1cccnc1N2C1CC1 [Nevirapine, reference compound]	895 µM	–	746	–	–
Cc1ccc2c(c1)C(O)(C#CC1CC1)C(=O)N2Cc1cn(C2CC(n3cc(C)c(=O)[nH]c3=O)OC2CO)nn1 (stereo not shown) [IIb, 1-(4-(4-((3-(cyclopropylethanol)-3-hydroxy-5-methyl-2-oxoindolin-1-yl)methyl)-1H-1,2,3-triazole-1-yl)-5-(hydroxymethyl)tetrahydrofuran-2-yl)-5-methylpyrimidine-2.4(1H,3H)-dione]	> 100 µM	3.3 µM	–	–	–
CC(C)CN(CC(O)C(Cc1ccccc1)NC(=O)OC1CCOC1)S(=O)(=O)c1ccc(-n2cc(CN3C(=O)C(=O)c4ccccc43)nn2)cc1 [Id, tetrahydrofuran-3-yl ((2S)3R)-4-(4-(4-((2.3-dioxoindolin-1-yl)methyl)-1H-1,2,3-triazole-1-yl)-N-isobutylphenylsulfonamide)-3-hydroxy-1-phenylbutan-2-yl) carbamate]	> 100 µM	1.5 µM	–	–	–
Cc1cn(C2CC(n3cc(CN4C(=O)C(=O)c5cc(Cl)ccc54)nn3)C(CO)O2)c(=O)[nH]c1=O (stereo not shown) [Ic, 5-chloro-1-((1-(2-(hydroxymethyl)-5-(5-methyl-2.4-dioxo-3.4-dihydropyrimidine-1(2H)-yl)tetrahydrofuran-3-yl)-1H-1,2,3-triazole-4-yl)methyl)indolin-2.3-dione]	> 100 µM	1.9 µM	–	–	–
CCOP(=O)(Cn1cc(CN2C(=O)C(F)(F)c3cc(Cl)ccc32)nn1)OCC [IIIf, diethyl ((4-((5-chloro-3.3-difluor-2-oxoindolin-1-yl)methyl)-1H-1,2,3-triazole-1-yl)methyl) phosphonate]	–	–	2106	0.9 µM	CC50 [3, 5]: 1900 µM; RT enzyme inhibition activity compared with benchmarks (in words) [2]: more active than the nevirapine and tenofovir benchmarks
CCOP(=O)(Cn1cc(CN2C(=O)C(F)(F)c3ccccc32)nn1)OCC [IIId, diethyl ((4-((3,3-difluor-2-oxoindolin-1-yl)methyl)-1H-1,2,3-triazole-1-yl)methyl) phosphonate]	–	–	1247	1.2 µM	CC50 [3, 5]: 1500 µM
Cc1cn([C@H]2C[C@H](N=[N+]=[N-])[C@@H](CO)O2)c(=O)[nH]c1=O [Zidovudine, reference compound]	–	0.01 µM	12,600	–	CC50 at 72 h [1]: 126 µM
Cc1cn(C2CC(n3cc(CN4C(=O)C(F)(F)c5ccccc54)nn3)C(CO)O2)c(=O)[nH]c1=O (stereo not shown) [IIIa, 1-(4-(4-((3,3-difluor-2-oxoindolin-1-yl)methyl)-1H-1,2,3-triazole-1-yl)-5-(hydroxymethyl)tetrahydrofuran-2-yl)-5-methylpyrimidine-2.4(1H,3H)-dione]	–	–	1392	0.6 µM	CC50 [3, 5]: 835 µM; RT enzyme inhibition activity compared with benchmarks (in words) [2]: more active than the nevirapine and tenofovir benchmarks
CCOP(=O)(Cn1cc(CN2C(=O)C(=O)c3cc(Cl)ccc32)nn1)OCC [Ih, diethyl ((4-((5-chloro-2.3-dioxoindolin-1-yl)methyl)-1H-1,2,3-triazole-1-yl)methyl) phosphonate]	–	1.2 µM	–	–	CC50 at 72 h [1, 5]: > 100 µM
Cc1cn(C2CC(n3cc(CN4C(=O)C(F)(F)c5cc(Cl)ccc54)nn3)C(CO)O2)c(=O)[nH]c1=O (stereo not shown) [IIIc, 1-(4-(4-((5-chloro-3.3-difluor-2-oxoindolin-1-yl)methyl)-1H-1,2,3-triazole-1-yl)-5-(hydroxymethyl)tetrahydrofuran-2-yl)-5-methylpyrimidine-2.4(1H,3H)-dione]	–	–	1318	0.8 µM	CC50 [3, 5]: 1050 µM; RT enzyme inhibition activity compared with benchmarks (in words) [2]: more active than the nevirapine and tenofovir benchmarks
Cc1ccc2c(c1)C(=O)C(=O)N2Cc1cn(-c2ccc(S(=O)(=O)N(CC(C)C)CC(O)C(Cc3ccccc3)NC(=O)OC3CCOC3)cc2)nn1 [Ie, tetrahydrofuran-3-yl ((2S,3R)-3-hydroxy-4-(N-isobutyl-4-(4-((5-methyl-2.3-dioxoindolin-1-yl)methyl)-1H-1,2,3-triazole-1-yl)phenylsulfonamide)-1=phenylbutan-2-yl)carbamate]	> 100 µM	0.9 µM	–	–	RT enzyme inhibition activity compared with benchmarks (in words) [2]: more active than the nevirapine and tenofovir benchmarks
CCOP(=O)(Cn1cc(CN2C(=O)C(F)(F)c3cc(C)ccc32)nn1)OCC [IIIe, diethyl ((4-((3,3-difluor-5-methyl-2-oxoindolin-1-yl)methyl)-1H-1,2,3-triazole-1-yl)methyl) phosphonate]	–	–	–	2.2 µM	CC50 [3, 5]: > 100 µM
O=C1Nc2ccc(Cl)cc2[C@@](C#CC2CC2)(C(F)(F)F)O1 [Efavirenz, reference compound]	88 µM	–	–	–	–
CCOP(=O)(Cn1cc(CN2C(=O)C(O)(C#CC3CC3)c3ccccc32)nn1)OCC (stereo not shown) [IId]	–	3.5 µM	–	–	CC50 at 72 h [1, 5]: > 100 µM
Cc1cn(C2CC(n3cc(CN4C(=O)C(=O)c5ccccc54)nn3)C(CO)O2)c(=O)[nH]c1=O (stereo not shown) [Ia, 1-((1-(2-(hydroxymethyl)-5-(5-methyl-2.4-dioxo-3.4-dihydropyrimidine-1(2H)-yl)tetrahydrofuran-3-yl)-1H-1,2,3-triazole-4-yl)methyl)indolin-2.3-dione]	> 100 µM	2.5 µM	–	–	–
Cc1cn(C2CC(n3cc(CN4C(=O)C(O)(C#CC5CC5)c5cc(Cl)ccc54)nn3)C(CO)O2)c(=O)[nH]c1=O (stereo not shown) [IIc]	> 100 µM	3.1 µM	–	–	–
CCOP(=O)(Cn1cc(CN2C(=O)C(O)(C#CC3CC3)c3cc(C)ccc32)nn1)OCC (stereo not shown) [IIe, diethyl ((4-((3-(cyclopropylethanol)-3-hydroxy-5-methyl-2-oxoindolin-1-yl)methyl-1,2,3-triazole-1-yl)methyl) phosphonate]	–	1.8 µM	–	–	CC50 at 72 h [1, 5]: > 100 µM
CCOP(=O)(Cn1cc(CN2C(=O)C(=O)c3cc(C)ccc32)nn1)OCC [Ig, diethyl ((4-((5-methyl-2.3-dioxoindolin-1-yl)methyl)-1H-1,2,3-triazole-1-yl)methyl) phosphonate]	–	0.7 µM	2,940	–	CC50 at 72 h [1, 5]: 2060 µM; RT enzyme inhibition activity compared with benchmarks (in words) [2]: more active than the nevirapine and tenofovir benchmarks
